Results from patent publication US20250236639A1, “NEUROACTIVE STEROIDS AND COMPOSITIONS THEREOF” (Sage Therapeutics, Inc., priority 2019, published 2025).

Molecular target: GABAA receptor
Assay: Steroid inhibition of [35S]-TBPS binding, rat brain cortical membranes
Details: 3 nM [35S]-TBPS, in the presence of 5 mM GABA
Method: [^35S]-t-Butylbicyclophosphorothionate (TBPS) binding assays using rat brain cortical membranes in the presence of 5 mM GABA has been described (Gee et al, J. Pharmacol. Exp. Ther. 1987, 241, 346-353; Hawkinson et al, Mol. Pharmacol. 1994, 46, 977-985; Lewin, A. H et al., Mol. Pharmacol. 1989, 35, 189-194).
Briefly, cortices are rapidly removed following decapitation of carbon dioxide-anesthetized Sprague-Dawley rats (200-250 g). The cortices are homogenized in 10 volumes of ice-cold 0.32 M sucrose using a glass/teflon homogenizer and centrifuged at 1500×g for 10 min at 4° C. The resultant supernatants are centrifuged at 10,000×g for 20 min at 4° C. to obtain the P2 pellets. The P2 pellets are resuspended in 200 mM NaCl/50 mM Na—K phosphate pH 7.4 buffer and centrifuged at 10,000×g for 10 min at 4° C. This washing procedure is repeated twice and the pellets are resuspended in 10 volumes of buffer. Aliquots ([…]) of the membrane suspensions are incubated with 3 nM [^35S]-TBPS and […] aliquots of test drug dissolved in dimethyl sulfoxide (DMSO) (final 0.5%) in the presence of 5 mM GABA. The incubation is brought to a final volume of 1.0 mL with buffer. Nonspecific binding is determined in the presence of […] and ranged from 15 to 25%. Following a 90 min incubation at room temp, the assays are terminated by filtration through glass fiber filters (Schleicher and Schuell No. 32) using a cell harvester (Brandel) and rinsed three times with ice-cold buffer. Filter bound radioactivity is measured by liquid scintillation spectrometry. Non-linear curve fitting of the overall data for each drug averaged for each concentration is done using Prism (GraphPad). […] The concentration of test compound producing 50% inhibition (IC50) of specific binding and the maximal extent of inhibition (Imax) are determined for the individual experiments with the same model used for the overall data and then the means±SEM.s of the individual experiments are calculated.
Various compounds are or can be screened to determine their potential as modulators of [^35S]-TBPS binding in vitro. These assays are or can be performed in accordance with the above

SMILES	IC50 [nM]
CC[C@]12CC[C@](O)(COC)C[C@H]1CC[C@H]1[C@@H]3CC[C@H]([C@](C)(O)Cn4cc(C#N)cn4)[C@@]3(C)CC[C@@H]12 [Compound 42, 1-((S)-2-((3R,5R,8S,9S,10S,13S,14S,17S)-10-ethyl-3-hydroxy-3-(methoxymethyl)-13-methylhexadecahydro-1H-cyclopenta[a]phenanthren-17-yl)-2-hydroxypropyl)-1H-pyrazole-4-carbonitrile]	< 100
C[C@@H]1C[C@H]([C@](C)(O)Cn2cc(C#N)cn2)[C@@]2(C)CC[C@H]3[C@@H](CC[C@@H]4C[C@](C)(O)CC[C@@H]43)[C@H]12 [Compound 48, 1-((S)-2-hydroxy-2-((3R,5R,8R,9R,10S,13S,14S,15R,17S)-3-hydroxy-3,13,15-trimethylhexadecahydro-1H-cyclopenta[a]phenanthren-17-yl)propyl)-1H-pyrazole-4-carbonitrile]	< 100
CC[C@]12CC[C@@](C)(O)C[C@H]1CC[C@H]1[C@@H]3CC[C@H]([C@](C)(O)Cn4cc(C#N)cn4)[C@@]3(C)CC[C@@H]12 [Compound 3, 1-((S)-2-((3R,5R,8S,9S,10S,13S,14S,17S)-10-ethyl-3-hydroxy-3,13-dimethylhexadecahydro-1H-cyclopenta[a]phenanthren-17-yl)-2-hydroxypropyl)-1H-pyrazole-4-carbonitrile]	< 100
COC[C@@]1(O)CC[C@H]2[C@H](CC[C@@H]3[C@@H]2CC[C@@]2(C)[C@H]3CC[C@@H]2[C@](C)(O)Cn2cc(C#N)cn2)C1 [Compound 29, 1-((S)-2-hydroxy-2-((3R,5R,8R,9R,10S,13S,14S,17S)-3-hydroxy-3-(methoxymethyl)-13-methylhexadecahydro-1H-cyclopenta[a]phenanthren-17-yl)propyl)-1H-pyrazole-4-carbonitrile]	< 100
CCC[C@@]1(O)CC[C@@]2(C)[C@H](CC[C@@H]3[C@@H]2CC[C@@]2(C)[C@H]3CC[C@@H]2[C@](C)(O)Cn2cc(C#N)cn2)C1 [Compound 26, 1-((S)-2-hydroxy-2-((3R,5R,8R,9S,10S,13S,14S,17S)-3-hydroxy-10,13-dimethyl-3-propylhexadecahydro-1H-cyclopenta[a]phenanthren-17-yl)propyl)-1H-pyrazole-4-carbonitrile]	< 100
CCC[C@@]1(O)CC[C@H]2[C@H](CC[C@@H]3[C@@H]2CC[C@@]2(C)[C@H]3CC[C@@H]2[C@](C)(Cn2cc(C#N)cn2)OC)C1 [Compound 37, 1-((R)-2-((3R,5R,8R,9R,10S,13S,14S,17S)-3-hydroxy-13-methyl-3-propylhexadecahydro-1H-cyclopenta[a]phenanthren-17-yl)-2-methoxypropyl)-1H-pyrazole-4-carbonitrile]	100 to 1000
COC[C@@]1(O)CC[C@@]2(C)[C@H](CC[C@@H]3[C@@H]2CC[C@@]2(C)[C@H]3CC[C@@H]2[C@](C)(Cn2cc(C#N)cn2)OC)C1 [Compound 55, 1-((R)-2-((3R,5R,8R,9S,10S,13S,14S,17S)-3-hydroxy-3-(methoxymethyl)-10,13-dimethylhexadecahydro-1H-cyclopenta[a]phenanthren-17-yl)-2-methoxypropyl)-1H-pyrazole-4-carbonitrile]	100 to 1000
CC(C)(Cn1cc(C#N)cn1)[C@H]1CC[C@H]2[C@@H]3CC[C@@H]4C[C@](C)(O)CC[C@@H]4[C@H]3CC[C@]12C [Compound 41, 1-(2-((3R,5R,8R,9R,10S,13S,14S,17S)-3-hydroxy-3,13-dimethylhexadecahydro-1H-cyclopenta[a]phenanthren-17-yl)-2-methylpropyl)-1H-pyrazole-4-carbonitrile]	< 100
CC[C@]12CC[C@@](C)(O)C[C@H]1CC[C@H]1[C@@H]3CC[C@H]([C@](C)(Cn4cc(C#N)cn4)OC)[C@@]3(C)CC[C@@H]12 [Compound 6, 1-((R)-2-((3R,5R,8S,9S,10S,13S,14S,17S)-10-ethyl-3-hydroxy-3,13-dimethylhexadecahydro-1H-cyclopenta[a]phenanthren-17-yl)-2-methoxypropyl)-1H-pyrazole-4-carbonitrile]	< 100
C[C@H]1C[C@H]2[C@H](CC[C@@H]3[C@@H]2CC[C@@]2(C)[C@H]3CC[C@@H]2[C@](C)(O)Cn2cc(C#N)cn2)C[C@]1(C)O [Compound 50, 1-((S)-2-hydroxy-2-((2S,3S,5R,8R,9R,10S,13S,14S,17S)-3-hydroxy-2,3,13-trimethylhexadecahydro-1H-cyclopenta[a]phenanthren-17-yl)propyl)-1H-pyrazole-4-carbonitrile]	< 100
CCC[C@@]1(O)CC[C@H]2[C@H](CC[C@@H]3[C@@H]2CC[C@@]2(C)[C@H]3CC[C@@H]2[C@@](C)(Cn2cc(C#N)cn2)OC)C1 [Compound 36, 1-((S)-2-((3R,5R,8R,9R,10S,13S,14S,17S)-3-hydroxy-13-methyl-3-propylhexadecahydro-1H-cyclopenta[a]phenanthren-17-yl)-2-methoxypropyl)-1H-pyrazole-4-carbonitrile]	100 to 1000
C[C@H]1C[C@H]2[C@H](CC[C@@H]3[C@@H]2CC[C@@]2(C)[C@H]3CC[C@@H]2[C@@](C)(O)Cn2cc(C#N)cn2)C[C@]1(C)O [Compound 51, 1-((R)-2-hydroxy-2-((2S,3S,5R,8R,9R,10S,13S,14S,17S)-3-hydroxy-2,3,13-trimethylhexadecahydro-1H-cyclopenta[a]phenanthren-17-yl)propyl)-1H-pyrazole-4-carbonitrile]	< 100
C[C@@]1(O)CC[C@H]2[C@H](CC[C@@H]3[C@@H]2CC[C@@]2(C)[C@H]3[C@H](C3CC3)C[C@@H]2[C@@](C)(O)Cn2cc(C#N)cn2)C1 [Compound 46, 1-((R)-2-((3R,5R,8R,9R,10S,13S,14S,15S,17S)-15-cyclopropyl-3-hydroxy-3,13-dimethylhexadecahydro-1H-cyclopenta[a]phenanthren-17-yl)-2-hydroxypropyl)-1H-pyrazole-4-carbonitrile]	< 100
C[C@@]1(O)CC[C@H]2[C@H](CC[C@@H]3[C@@H]2CC[C@@]2(C)[C@H]3CC[C@@H]2[C@@](C)(O)Cn2cc(C#N)cn2)C1 [Compound 1, 1-((R)-2-hydroxy-2-((3R,5R,8R,9R,10S,13S,14S,17S)-3-hydroxy-3,13-dimethylhexadecahydro-1H-cyclopenta[a]phenanthren-17-yl)propyl)-1H-pyrazole-4-carbonitrile]	< 100
C[C@@]1(O)CC[C@H]2[C@H](CC[C@@H]3[C@@H]2CC[C@]2(C)[C@@H](C4(Cn5cc(C#N)cn5)CC4)CC[C@@H]32)C1 [Compound 39, 1-((1-((3R,5R,8R,9R,10S,13S,14S,17S)-3-hydroxy-3,13-dimethylhexadecahydro-1H-cyclopenta[a]phenanthren-17-yl)cyclopropyl)methyl)-1H-pyrazole-4-carbonitrile]	< 100
CC[C@@]1(O)CC[C@H]2[C@@H](CC[C@@H]3[C@@H]2CC[C@@]2(C)[C@H]3CC[C@@H]2[C@@](C)(O)Cn2cc(C#N)cn2)C1 [Compound 14, 1-((R)-2-((3R,5S,8R,9R,10S,13S,14S,17S)-3-ethyl-3-hydroxy-13-methylhexadecahydro-1H-cyclopenta[a]phenanthren-17-yl)-2-hydroxypropyl)-1H-pyrazole-4-carbonitrile]	≥ 1000
C[C@@H]1C[C@H]2[C@H](CC[C@@H]3[C@@H]2CC[C@@]2(C)[C@H]3CC[C@@H]2[C@@](C)(O)Cn2cc(C#N)cn2)C[C@]1(C)O [Compound 53, 1-((R)-2-hydroxy-2-((2R,3S,5R,8R,9R,10S,13S,14S,17S)-3-hydroxy-2,3,13-trimethylhexadecahydro-1H-cyclopenta[a]phenanthren-17-yl)propyl)-1H-pyrazole-4-carbonitrile]	100 to 1000
COC[C@@]1(O)CC[C@@]2(C)[C@H](CC[C@@H]3[C@@H]2CC[C@@]2(C)[C@H]3CC[C@@H]2[C@@](C)(Cn2cc(C#N)cn2)OC)C1 [Compound 54, 1-((S)-2-((3R,5R,8R,9S,10S,13S,14S,17S)-3-hydroxy-3-(methoxymethyl)-10,13-dimethylhexadecahydro-1H-cyclopenta[a]phenanthren-17-yl)-2-methoxypropyl)-1H-pyrazole-4-carbonitrile]	100 to 1000
